{"source": "paper PMC6226504", "about": "“Ca^2+ efflux via plasma membrane Ca^2+-ATPase mediates chemotaxis in ascidian sperm” (Scientific Reports, 2018)", "target": "T1, plasma membrane Ca2+-ATPase (PMCA), Atp2b-var.b-mut3 (Ciona intestinalis, UniProt A0A3G9HPC9, R951A/H956A/H962A)", "T1 construct": "Atp2b-var.b-mut3, recombinant, in Sf9 cell membrane fraction", "T1 sequence (A0A3G9HPC9 1-1165 R951A/H956A/H962A)": "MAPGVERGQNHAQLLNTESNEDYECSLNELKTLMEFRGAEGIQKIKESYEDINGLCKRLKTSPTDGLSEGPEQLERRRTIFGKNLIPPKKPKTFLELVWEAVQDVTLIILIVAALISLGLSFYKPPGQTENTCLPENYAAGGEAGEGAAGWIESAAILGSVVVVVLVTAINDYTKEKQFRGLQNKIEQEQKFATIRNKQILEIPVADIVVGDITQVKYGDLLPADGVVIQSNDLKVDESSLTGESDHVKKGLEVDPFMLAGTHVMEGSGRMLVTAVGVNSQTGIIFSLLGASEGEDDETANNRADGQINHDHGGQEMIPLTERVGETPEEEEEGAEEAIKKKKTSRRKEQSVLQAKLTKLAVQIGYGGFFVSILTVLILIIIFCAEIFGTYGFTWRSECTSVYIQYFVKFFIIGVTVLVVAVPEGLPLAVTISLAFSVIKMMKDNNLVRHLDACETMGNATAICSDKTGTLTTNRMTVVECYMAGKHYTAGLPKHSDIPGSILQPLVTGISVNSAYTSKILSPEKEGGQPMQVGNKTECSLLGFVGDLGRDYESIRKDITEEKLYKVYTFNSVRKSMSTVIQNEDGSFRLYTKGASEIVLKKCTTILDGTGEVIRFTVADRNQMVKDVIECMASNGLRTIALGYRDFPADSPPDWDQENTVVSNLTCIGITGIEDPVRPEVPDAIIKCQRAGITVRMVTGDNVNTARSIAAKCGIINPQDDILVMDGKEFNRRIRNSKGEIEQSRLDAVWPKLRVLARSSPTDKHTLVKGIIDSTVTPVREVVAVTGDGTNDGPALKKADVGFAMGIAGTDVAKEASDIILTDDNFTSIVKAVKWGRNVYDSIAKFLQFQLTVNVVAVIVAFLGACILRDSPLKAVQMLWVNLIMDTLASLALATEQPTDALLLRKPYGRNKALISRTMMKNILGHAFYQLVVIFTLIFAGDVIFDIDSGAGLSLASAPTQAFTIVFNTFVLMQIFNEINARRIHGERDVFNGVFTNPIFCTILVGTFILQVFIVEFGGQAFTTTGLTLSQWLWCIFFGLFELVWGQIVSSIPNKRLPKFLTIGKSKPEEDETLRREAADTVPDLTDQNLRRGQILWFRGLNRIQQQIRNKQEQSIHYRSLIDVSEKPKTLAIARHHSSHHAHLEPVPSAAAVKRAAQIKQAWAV", "assay": "quartz crystal microbalance (QCM), mutant compared with wild-type membranes", "type": "binding", "data": [{"smiles": "C[C@@H](CCC[C@@H](C)[C@H]1CC[C@H]2[C@@H]3[C@H](O)C[C@H]4[C@@H](O)[C@H](OS(=O)(=O)O)CC[C@]4(C)[C@H]3CC[C@]12C)COS(=O)(=O)O", "note": "[SAAF]", "values": [{"measurement": "quartz crystal microbalance (QCM), mutant compared with wild-type membranes", "value": "Atp2b-var.b-mut3 showed the same interaction compared to the wild-type"}]}]}
